From PubChem BioAssay (NCI)
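All cell lines were grown in 96-well plates and treated with compound for 48 hours. At the TGI there is no net growth.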

Assays:
Test in all cases: NCI anticancer screen, dose series, 48 h
[1] = system: 786-0 renal
[2] = system: A498 renal
[3] = system: A549 NSCLC
[4] = system: ACHN renal
[5] = system: BT-549 breast
[6] = system: CAKI-1 renal
[7] = system: CCRF-CEM leukemia
[8] = system: COLO 205 colon
[9] = system: DU-145 prostate
[10] = system: EKVX NSCLC
[11] = system: HCC-2998 colon
[12] = system: HCT-116 colon
[13] = system: HCT-15 colon
[14] = system: HL-60(TB) leukemia
[15] = system: HOP-62 NSCLC
[16] = system: HOP-92 NSCLC
[17] = system: HS 578T breast
[18] = system: HT29 colon
[19] = system: IGROV1 ovarian
[20] = system: KM12 colon
[21] = system: LOX IMVI melanoma
[22] = system: M14 melanoma
[23] = system: MALME-3M melanoma
[24] = system: MCF7 breast
[25] = system: MDA-MB-231 breast
[26] = system: MDA-MB-435
[27] = system: MDA-N
[28] = system: MOLT-4 leukemia
[29] = system: NCI-H226 lung
[30] = system: NCI-H23 lung
[31] = system: NCI-H460 lung
[32] = system: NCI-H522 lung
[33] = system: NCI/ADR-RES ovarian
[34] = system: OVCAR-3 ovarian
[35] = system: OVCAR-4 ovarian
[36] = system: OVCAR-5 ovarian
[37] = system: OVCAR-8 ovarian
[38] = system: PC-3 prostate
[39] = system: RPMI-8226 leukemia
[40] = system: RXF 393 renal
[41] = system: SF-268 CNS
[42] = system: SF-295 CNS
[43] = system: SF-539 CNS
[44] = system: SK-MEL-2 melanoma
[45] = system: SK-MEL-28 melanoma
[46] = system: SK-MEL-5 melanoma
[47] = system: SK-OV-3 ovarian
[48] = system: SN12C renal
[49] = system: SNB-19 CNS
[50] = system: SNB-75 CNS
[51] = system: SR leukemia
[52] = system: SW-620 colon
[53] = system: T-47D breast
[54] = system: TK-10 renal
[55] = system: U251 CNS
[56] = system: UACC-257 melanoma
[57] = system: UACC-62 melanoma
[58] = system: UO-31 renal
[59] = system: K-562 leukemia

Measured: TGI

COC(=O)C1CC23CCCN4CCC5(c6ccccc6N(C=O)C15CC2)C43 (stereo not given)
not listed: [59]
> 100 µM: all other assays above

CNC(=O)Nc1nc2ccc([N+](=O)[O-])cc2[nH]1
not listed: [50] | [57]
> 100 µM: all other assays above
